A value given as a limit tells only on which side of the number the result lay.

Assay [1] concerns panel of human cancer (HT-29, DLD-1, HCT116 p53^+/+ and p53^−/−, PSN1, MiaPaCa2, BxPC3, A549, H460, GBM1) and non-cancer cell lines (ARPE-19, MCF10A, NP1). Put plainly: Chemosensitivity of a panel of human cancer and non-cancer cell lines (MTT, 96 h). It is filed as cell-based. The conditions noted are these: for IC50: HT-29, DLD-1, HCT116 (p53 wild type and null), BxPC3, A549 and H460 cell lines, 96 h, MTT. As to the method:
FIG. 7. Chemosensitivity response of a panel of human cancer and non-cancer cell lines to 96 h continuous exposure to self-assembling test compounds. a, The potency of compounds tested against cancer (HT-29, DLD-1, HCT116 p53^+/+ and […], PSN1, MiaPaCa2, BxPC3, A549, H460 and GBM1) and non-cancer cells (ARPE-19, MCF10A and NP1). Each value represents the mean IC50±standard deviation from a minimum of three independent experiments. b,c, The selectivity index (SI) for [L2Cu3]^6+ (b) and [L2Zn3]^6+ (c) for the indicated cancer cell lines; SI is defined as the mean IC50 against the particular non-cancer cell line model divided by the mean IC50 against the particular cancer cell line. […] As the SI value is calculated using the mean IC50 values, experimental error is not included in these figures. d,e, IC50 values for the clinically approved platinates (cisplatin, oxaliplatin and carboplatin) and [L2Mn3]^6+ and the corresponding SI results.
All cell lines used were maintained at low passage in antibiotic-free media and were obtained from ATCC (LGC Standards, Middlesex, UK) unless otherwise stated (Methods). HT29, DLD-1, HCT116 p53^+/+ and HCT116 p53^−/− are all colorectal adenocarcinoma cell lines derived from different individuals and harbor different combinations of oncogenic lesions (except for the HCT116 isogenic cancer cell clones that are genetically identical except for p53 status). PSN-1, BxPC-3 and MiaPaCa2 are pancreatic carcinoma cell lines and A549 and H460 are lung carcinoma cell lines. HT29, DLD-1, PSN-1, BxPC-3, A549 and H460 cell lines were cultured in RPMI-1640 growth media (Sigma) containing 2 mM L-glutamine, 1 mM sodium pyruvate and 10% fetal bovine serum (FBS). HCT116 (p53^+/+ and p53^−/−) and MiaPaCa2 cell lines were cultured in Dulbecco's Modified Eagle's Medium (Sigma), 2 mM L-glutamine and 10% FBS. The ARPE-19 retinal epithelial non-cancer cell line (Dunn et al., 1996) was cultured in DMEM/F12 media (Gibco), 2 mM L-glutamine, 1 mM sodium pyruvate and 10% FBS. The MCF10A non-cancerous human breast epithelial cell line was cultured in Minimal Essential Media Eagle (Sigma), 2 mM L-glutamine, 1 mM sodium pyruvate, 10% FBS and 1×non-essential amino acids (NEAA). NP1 and GBM1 cells were cultured on plasticware coated with poly-L-ornithine (5 μg/ml) and laminin (2.4 μg/ml) (Polson et al., 2018; Da Silva et al., 2019). […]
[L2M3]^6+ and all the other self-assembling complexes were freshly formed by adding DMSO to individual components mixing together by pipetting. […] Media and MTT were removed and formazan crystals were dissolved in 150 μl of DMSO and the absorbance of the resulting solution determined at 540 nm. […]

Assay [2] can be described thus: Phosphatase activity: hydrolysis of phenyl phosphate. Here is the method: FIG. 6. Phosphatase activity of [L2Zn3]^6+. ^31P NMR spectra using different substrates including PhOPO3 (spectra A to D), serine phosphate (spectra E to H), threonine phosphate (spectra I to L) and tyrosine phosphate (spectra M to P). Specific details for each ^31P NMR spectra are as follows: Spectra A, E, I and M represent substrate alone (44 hrs incubated @ 37° C.); Spectra B, F, J and N represents [L2Zn3]^6+ plus substrate (t=0 min); Spectra C, G, K and O represents [L2Zn3]^6+ plus substrate incubated @ 37° C. for 19 hours; Spectra D, H, L and […] represents [L2Zn3]^6+ plus substrate incubated @ 37° C. for 44 hours. The ^31P NMR of [L2Zn3(PO4)]^3+ gives a signal at 8.6 ppm.
Only [L2Zn3(PO4)]^3+ was observed, coupled with a rapid yellowing of the solution due to the formation of 4-nitrophenolate.
The rate of substrate hydrolysis is also dependent upon the metal used in the self-assembly process.

Consider `[Cu+2].[Cu+2].[Cu+2].c1ccc(-c2csc(NCCN(CCNc3nc(-c4ccccn4)cs3)CCNc3nc(-c4ccccn4)cs3)n2)nc1.c1ccc(-c2csc(NCCN(CCNc3nc(-c4ccccn4)cs3)CCNc3nc(-c4ccccn4)cs3)n2)nc1` [[L2Cu3]^6+], for which the IC50 result in assay [1] is listed as “mostly sub-μM”. The selectivity indices in assay [1] (many of the cancer cell lines) is given as more than 100. The “hydrolysis of phenyl phosphate” value in assay [2] (solid-state and ESI-MS data) is listed as “does not hydrolyse phenyl phosphate”.
Turning to `[Zn+2].[Zn+2].[Zn+2].c1ccc(-c2csc(NCCN(CCNc3nc(-c4ccccn4)cs3)CCNc3nc(-c4ccccn4)cs3)n2)nc1.c1ccc(-c2csc(NCCN(CCNc3nc(-c4ccccn4)cs3)CCNc3nc(-c4ccccn4)cs3)n2)nc1` [[L2Zn3]^6+], the IC50 entry in assay [1] is recorded as “mostly sub-μM”. Besides, in assay [2] (25%:75% DMSO and buffered H2O (HEPES pH 7.5), 37° C., after 44 hrs), the “hydrolysis of PhOPO3^2− by 31P NMR” value was “virtually no signal corresponding to PhOPO3^2− is observed”.

Values taken from patent US20230322815A1, “NOVEL COMPOUNDS AND THERAPEUTIC USES THEREOF” (University of Huddersfield, priority 2020, published 2023).
